In patent publication US20240300942A1, “SMALL MOLECULES FOR TREATEMENT OF CANCER” (VRise Therapeutics Inc., priority 2021, published 2024) one finds inhibition data, which are given here for nine compounds.

The test system of this test is MIAPACA-2 cell line. Description: In vitro cell proliferation assay (CCK-8) in MIAPACA-2 cell line. In kind it is cell-based. As to conditions: Homo sapiens, MIA PaCa-2, 72 hours; for inhibition at 3 µM: TC1: Test Concentration of 3 uM; for inhibition at 10 µM: TC2: Test Concentration of 10 uM. How it is done: Growth inhibition assays is to be carried out using 10% FBS supplemented media. Cells are to be seeded at a desired concentration of 1,500-6,000 cells/well in a 96-well plate. Test compounds at a concentration range from 1 to 30 uM will be added after 24 hours. Growth will be assessed using the CCK-8 kit for measuring reduction at 0 h (prior to the addition of the test compound) and 72 hours after the addition of test compound. Absorbance read on a BIO-RAD iMark Microplate or any equivalent microplate reader at a wavelength of 450 nm. Data was analysed and percent inhibition due to the test compound compared to the control is calculated accordingly.

As a reminder, the inhibition is the share of the control response that was lost under treatment. Lower therefore signals a weak effect. For the compound `C=CC(=O)N1CCN(c2nc(N3CC(C)OC(C)C3)c(C#N)c3c2CCN(c2cccc4ccccc24)C3)CC1CC#N` (racemic) [Ex 13, 1-(4-acryloyl-3-(cyanomethyl)piperazin-1-yl)-3-(2,6-dimethylmorpholino)-6-(naphthalen-1-yl)-5,6,7,8-tetrahydro-2,6-naphthyridine-4-carbonitrile], the inhibition at 3 µM fell in the range of 75 to 100% and the inhibition at 10 µM lay within 75 to 100%.
Regarding `C=CC(=O)N1CCN(c2nc(OC[C@@H]3CCCN3C)c(C#N)c3c2CCN(c2cccc4ccccc24)C3)C[C@H]1CC#N` [Ex 18, 1-((R)-4-acryloyl-3-(cyanomethyl)piperazin-1-yl)-3-(((S)-1-methylpyrrolidin-2-yl)methoxy)-6-(naphthalen-1-yl)-5,6,7,8-tetrahydro-2,6-naphthyridine-4-carbonitrile], the inhibition at 3 µM fell in the range of 75 to 100% and the inhibition at 10 µM is 75 to 100%.
The compound `C=CC(=O)N1CCN(c2nc(OC[C@@H]3CCCN3C)c(C#N)c3c2CCN(c2cncc4ccccc24)C3)CC1` [Ex 21, (S)-1-(4-acryloylpiperazin-1-yl)-6-(isoquinolin-4-yl)-3-((1-methylpyrrolidin-2-yl)methoxy)-5,6,7,8-tetrahydro-2,6-naphthyridine-4-carbonitrile] came in with an inhibition at 3 µM of 50 to 75% and an inhibition at 10 µM of 50 to 75%.
Compound `C=CC(=O)N1CCN(c2nc(N3CC(C)OC(C)C3)c(C#N)c3c2CCN(c2cccc4ccccc24)C3)C[C@H]1CC#N` (single isomer, unassigned) [Ex 15] showed an inhibition at 3 µM of 75 to 100% and an inhibition at 10 µM of 75 to 100%.
The compound `C=CC(=O)N1CCN(c2nc(OC[C@@H]3CCCN3C)c(C#N)c3c2CCN(c2cccc4ccccc24)C3)C[C@@H]1CC#N` [Ex 17, 1-((S)-4-acryloyl-3-(cyanomethyl)piperazin-1-yl)-3-(((S)-1-methylpyrrolidin-2-yl)methoxy)-6-(naphthalen-1-yl)-5,6,7,8-tetrahydro-2,6-naphthyridine-4-carbonitrile] showed an inhibition at 3 µM of 75 to 100% and an inhibition at 10 µM of 75 to 100%.
Compound `C=CS(=O)(=O)N1CCN(c2nc(OC[C@@H]3CCCN3C)c(C#N)c3c2CCN(c2cccc4cccc(Cl)c24)C3)CC1` [Ex 11, (S)-6-(8-chloronaphthalen-1-yl)-3-((1-methylpyrrolidin-2-yl)methoxy)-1-(4-(vinylsulfonyl)piperazin-1-yl)-5,6,7,8-tetrahydro-2,6-naphthyridine-4-carbonitrile] registered an inhibition at 3 µM of 75 to 100% and an inhibition at 10 µM of 75 to 100%.
Take `C=CC(=O)N1CCN(c2nc(OC[C@@H]3CCCN3C)c(C#N)c3c2CCN(c2cc(O)cc4ccccc24)C3)CC1` [Ex 9, (S)-1-(4-acryloylpiperazin-1-yl)-6-(3-hydroxynaphthalen-1-yl)-3-((1-methylpyrrolidin-2-yl)methoxy)-5,6,7,8-tetrahydro-2,6-naphthyridine-4-carbonitrile]: the inhibition at 3 µM fell in the range of 75 to 100% and the inhibition at 10 µM lay within 75 to 100%.
In turn, `C=C(F)C(=O)N1CCN(c2nc(OC[C@@H]3CCCN3C)c(C#N)c3c2CCN(c2cccc4cccc(Cl)c24)C3)CC1C` (stereo partly drawn) [Ex 12, 6-(8-chloronaphthalen-1-yl)-1-(4-(2-fluoroacryloyl)-3-methylpiperazin-1-yl)-3-(((S)-1-methylpyrrolidin-2-yl)methoxy)-5,6,7,8-tetrahydro-2,6-naphthyridine-4-carbonitrile] yielded an inhibition at 3 µM of 50 to 75% and an inhibition at 10 µM of 75 to 100%.
Regarding `C=CC(=O)N1CCN(c2nc(OC[C@@H]3CCCN3C)c(C#N)c3c2CCN(c2cc(O)cc4ccccc24)C3)CC1CC#N` (stereo partly drawn) [Ex 19, 1-(4-acryloyl-3-(cyanomethyl)piperazin-1-yl)-6-(3-hydroxynaphthalen-1-yl)-3-(((S)-1-methylpyrrolidin-2-yl)methoxy)-5,6,7,8-tetrahydro-2,6-naphthyridine-4-carbonitrile], the inhibition at 3 µM lay within 75 to 100% and the inhibition at 10 µM lay within 75 to 100%.
